Key:
[1] = target: Nanoluciferase-BRD9 fusion protein (Homo sapiens (Human), UniProt Q9H8M2); experiment: SYO1 BRD9 NanoLuc degradation assay; format: cell-based; details: Table 5A, SYO-1 cells expressing 3×FLAG-NLuc-BRD9, 6 hours; for DC50: read-out: SYO1 BRD9-NanoLuc degradation IC50
How it was run: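 Degradation was read as loss of nanoluciferase signal (Nano-Glo) after 6 h compound exposure in a stable SYO-1 line carrying 3×FLAG-NLuc-BRD9 (8000 cells/well). Normalised between DMSO (high) and a 1 μM known BRD9 degrader (low).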

BRD9 bromodomain = BRD9 bromodomain (Homo sapiens (Human), UniProt Q9H8M2); experiment: BRD9 bromodomain TR-FRET competition binding assay; details: Table 4; competition with biotinylated ligand, 3 nM Flag-BRD9, 90 minutes
Chain of BRD9 bromodomain (Q9H8M2 133-239): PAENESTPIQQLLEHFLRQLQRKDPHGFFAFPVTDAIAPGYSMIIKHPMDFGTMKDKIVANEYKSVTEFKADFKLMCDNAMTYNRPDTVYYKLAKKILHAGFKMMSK
Method: Procedure: His-Flag-BRD9 (P133-K239; Swiss Prot Q9H8M2; SEQ ID NO:1 mgsshhhhhhenlyfq/gdykddddkgslevlfqg/[…] […]) was cloned, expressed, purified, and then treated with TEV protease. Cleaved His tag was removed by purification. The binding of a biotinylated small molecule ligand of BRD9 was assessed via the LANCE® TR-FRET platform (PerkinElmer), and the compounds were assayed for inhibitory activity against this interaction.
A mixture of biotinylated-ligand and SureLight™ Allophycocyanin-Streptavidin (APC-SA, PerkinElmer AD0201) in 50 mM HEPES (pH 7.4), 50 mM NaCl, 1 mM TCEP (pH 7), 0.01% (v/v) Tween-20, 0.01% (w/v) bovine serum albumin was added to a white 384-well PerkinElmer Proxiplate Plus plate. DMSO or 3-fold serially diluted compounds were then added to the Proxiplate followed by addition of Flag-BRD9. After a 10-minute incubation at room temperature, Eu-W1024 anti-FLAG (PerkinElmer, AD0273) was added. The final reaction mixture that contained 3.75 nM biotinylated ligand, 3 nM Flag-BRD9, 7.5 nM SureLight™ Allophycocyanin-Streptavidin, and 0.2 nM Eu-W1024 anti-FLAG was incubated at room temperature for 90 minutes.
Results: The plates were then read on a PerkinElmer Envision plate reader to determine the ratio of emission at 665 nm over 615 nm. […]

Chain of Nanoluciferase-BRD9 fusion protein (Q9H8M2 whole entry, the tested form may be a part): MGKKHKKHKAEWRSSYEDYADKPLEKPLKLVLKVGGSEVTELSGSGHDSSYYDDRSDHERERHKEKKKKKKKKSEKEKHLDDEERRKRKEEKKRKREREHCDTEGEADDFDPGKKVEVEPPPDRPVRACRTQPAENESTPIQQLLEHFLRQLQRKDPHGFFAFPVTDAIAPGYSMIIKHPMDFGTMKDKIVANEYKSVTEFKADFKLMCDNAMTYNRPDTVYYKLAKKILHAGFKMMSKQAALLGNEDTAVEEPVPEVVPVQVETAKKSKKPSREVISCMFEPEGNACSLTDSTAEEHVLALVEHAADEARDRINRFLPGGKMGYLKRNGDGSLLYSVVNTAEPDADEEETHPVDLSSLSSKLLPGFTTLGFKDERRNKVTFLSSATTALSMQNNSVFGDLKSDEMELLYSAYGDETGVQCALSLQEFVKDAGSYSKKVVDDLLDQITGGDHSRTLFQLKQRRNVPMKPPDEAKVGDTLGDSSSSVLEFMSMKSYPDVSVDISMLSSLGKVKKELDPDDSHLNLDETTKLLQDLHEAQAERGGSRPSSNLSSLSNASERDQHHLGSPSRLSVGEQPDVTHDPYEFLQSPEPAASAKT

SMILES	IC50 [1] [nM]	IC50 (BRD9 bromodomain) [nM]	DC50 [1] [nM]
COc1cc(-c2cn(C)c(=O)c3cnccc23)cc(OC)c1CN1CCC2(CC1)CN(C(=O)COc1cccc3c1C(=O)N(C1CCC(=O)NC1=O)C3=O)CCO2 (centres unmarked) [Compound D41, 4-[2-(9-[[2,6-dimethoxy-4-(2-methyl-1-oxo-2,7-naphthyridin-4-yl)phenyl]methyl]-1-oxa-4,9-diazaspiro[5.5]undecan-4-yl)-2-oxoethoxy]-2-(2,6-dioxopiperidin-3-yl)isoindole-1,3-dione formic acid]	–	< 10	10 to 100
COc1cc(-c2cn(C)c(=O)c3cc(O)ccc23)cc(OC)c1CN1CCC2(CC1)CN(C(=O)CCCOc1cccc3c1C(=O)N(C1CCC(=O)NC1=O)C3=O)CCO2 (centres unmarked) [Compound D54, 2-(2,6-dioxopiperidin-3-yl)-4-[4-(9-[[4-(7-hydroxy-2-methyl-1-oxoisoquinolin-4-yl)-2,6-dimethoxyphenyl]methyl]-1-oxa-4,9-diazaspiro[5.5]undecan-4-yl)-4-oxobutoxy]isoindole-1,3-dione formic acid]	10 to 100	10 to 100	–
COc1cc(-c2cn(C)c(=O)c3cnccc23)cc(OC)c1CN(C)CC12CC(C(=O)NCCCCCNc3cccc4c3C(=O)N(C3CCC(=O)NC3=O)C4=O)(C1)C2 (centres unmarked) [Compound D56, 3-[([[2,6-dimethoxy-4-(2-methyl-1-oxo-2,7-naphthyridin-4-yl)phenyl]methyl](methyl)amino)methyl]-N-(5-[[2-(2,6-dioxopiperidin-3-yl)-1,3-dioxoisoindol-4-yl]amino]pentyl)bicyclo[1.1.1]pentane-1-carboxamide]	< 10	< 10	–
COc1cc(-c2cn(C)c(=O)c3cnccc23)cc(OC)c1CN(C)C12CC(C(=O)NCCCCCNc3cccc4c3C(=O)N(C3CCC(=O)NC3=O)C4=O)(C1)C2 (centres unmarked) [Compound D57, 3-([[2,6-dimethoxy-4-(2-methyl-1-oxo-2,7-naphthyridin-4-yl)phenyl]methyl](methyl)amino)-N-(5-[[2-(2,6-dioxopiperidin-3-yl)-1,3-dioxoisoindol-4-yl]amino]pentyl)bicyclo[1.1.1]pentane-1-carboxamide formic acid]	< 10	10 to 100	–
COc1cc(-c2cn(C)c(=O)c3cnccc23)cc(OC)c1CN(C)C12CC(NC(=O)CCOCCOCCNc3cccc4c3C(=O)N(C3CCC(=O)NC3=O)C4=O)(C1)C2 (centres unmarked) [Compound D59, N-[3-([[2,6-dimethoxy-4-(2-methyl-1-oxo-2,7-naphthyridin-4-yl)phenyl]methyl](methyl)amino)bicyclo[1.1.1]pentan-1-yl]-3-[2-(2-[[2-(2,6-dioxopiperidin-3-yl)-1,3-dioxoisoindol-4-yl]amino]ethoxy)ethoxy]propanamide formic acid]	< 10	< 10	–
COc1cc(-c2cn(C)c(=O)c3cnccc23)cc(OC)c1CN(C)C12CC(NC(=O)CCCCCOc3cccc4c3C(=O)N(C3CCC(=O)NC3=O)C4=O)(C1)C2 (centres unmarked) [Compound D60, N-[3-([[2,6-dimethoxy-4-(2-methyl-1-oxo-2,7-naphthyridin-4-yl)phenyl]methyl](methyl)amino)bicyclo[1.1.1]pentan-1-yl]-6-[[2-(2,6-dioxopiperidin-3-yl)-1,3-dioxoisoindol-4-yl]oxy]hexanamide formic acid]	< 10	< 10	–
COc1cc(-c2cn(C)c(=O)c3cnccc23)cc(OC)c1CN1CCN(C(=O)C2CC2CNC(=O)COc2cccc3c2C(=O)N(C2CCC(=O)NC2=O)C3=O)CC1 (centres unmarked) [Compound D65, N-[[2-(4-[[2,6-dimethoxy-4-(2-methyl-1-oxo-2,7-naphthyridin-4-yl)phenyl]methyl]piperazine-1-carbonyl)cyclopropyl]methyl]-2-[[2-(2,6-dioxopiperidin-3-yl)-1,3-dioxoisoindol-4-yl]oxy]acetamide]	100 to 1000	10 to 100	–
COc1cc(-c2cn(C)c(=O)c3cnccc23)cc(OC)c1CN1CC(S(=O)(=O)NCCCCCCNc2ccc3c(c2)C(=O)N(C2CCC(=O)NC2=O)C3=O)C1 (centres unmarked) [Compound D67, 1-[[2,6-dimethoxy-4-(2-methyl-1-oxo-1,2-dihydro-2,7-naphthyridin-4-yl)phenyl]methyl]-N-(6-[[2-(2,6-dioxopiperidin-3-yl)-1,3-dioxo-2,3-dihydro-1H-isoindol-5-yl]amino]hexyl)azetidine-3-sulfonamide formic acid]	< 10	< 10	–
COc1cc(-c2cn(C)c(=O)c3cnccc23)cc(OC)c1CN(C)CC12CC(NC(=O)CCOCCOCCNc3cccc4c3C(=O)N(C3CCC(=O)NC3=O)C4=O)(C1)C2 (centres unmarked) [Compound D68, N-[3-[([[2,6-dimethoxy-4-(2-methyl-1-oxo-2,7-naphthyridin-4-yl)phenyl]methyl](methyl)amino)methyl]bicyclo[1.1.1]pentan-1-yl]-3-[2-(2-[[2-(2,6-dioxopiperidin-3-yl)-1,3-dioxoisoindol-4-yl]amino]ethoxy)ethoxy]propanamide formic acid]	–	< 10	100 to 1000

Continued, in another order:

IC50 [1] [nM]	IC50 (BRD9 bromodomain) [nM]	SMILES	DC50 [1] [nM]
< 10	< 10	COc1cc(-c2cn(C)c(=O)c3cnccc23)cc(OC)c1CN1CCC2(CC1)CN(C(=O)CCCCOc1cccc3c1C(=O)N(C1CCC(=O)NC1=O)C3=O)CCO2 (centres unmarked) [Compound D40, 4-[[5-(9-[[2,6-dimethoxy-4-(2-methyl-1-oxo-2,7-naphthyridin-4-yl)phenyl]methyl]-1-oxa-4,9-diazaspiro[5.5]undecan-4-yl)-5-oxopentyl]oxy]-2-(2,6-dioxopiperidin-3-yl)isoindole-1,3-dione formic acid]	–
< 10	< 10	COc1cc(-c2cn(C)c(=O)c3cnccc23)cc(OC)c1CN(C)CCCN1CCC(Oc2ccc3c(c2)C(=O)N(C2CCC(=O)NC2=O)C3=O)CC1 (centres unmarked) [Compound D52, 5-((1-(3-((2,6-dimethoxy-4-(2-methyl-1-oxo-1,2-dihydro-2,7-naphthyridin-4-yl)benzyl) (methyl)amino)propyl)piperidin-4-yl)oxy)-2-(2,6-dioxopiperidin-3-yl)isoindoline-1,3-dione formic acid]	–
< 10	< 10	COc1cc(-c2cn(C)c(=O)c3cnccc23)cc(OC)c1CN1CCN(CCCOc2ccc3c(c2)C(=O)N(C2CCC(=O)NC2=O)C3=O)CC1 (centres unmarked) [Compound D53, 5-[3-(4-[[2,6-dimethoxy-4-(2-methyl-1-oxo-2,7-naphthyridin-4-yl)phenyl]methyl]piperazin-1-yl)propoxy]-2-(2,6-dioxopiperidin-3-yl)isoindole-1,3-dione]	–
100 to 1000	10 to 100	COc1cc(-c2cn(C)c(=O)c3cnccc23)cc(OC)c1CN(C)CC12CC(C(=O)NCCOCCOCCNc3cccc4c3C(=O)N(C3CCC(=O)NC3=O)C4=O)(C1)C2 (centres unmarked) [Compound D55, 3-[([[2,6-dimethoxy-4-(2-methyl-1-oxo-2,7-naphthyridin-4-yl)phenyl]methyl](methyl)amino)methyl]-N-[2-[2-(2-[[2-(2,6-dioxopiperidin-3-yl)-1,3-dioxoisoindol-4-yl]amino]ethoxy)ethoxy]ethyl]bicyclo[1.1.1]pentane-1-carboxamide]	–
< 10	< 10	COc1cc(-c2cn(C)c(=O)c3cnccc23)cc(OC)c1CN(C)C12CC(C(=O)NCCOCCOCCNc3cccc4c3C(=O)N(C3CCC(=O)NC3=O)C4=O)(C1)C2 (centres unmarked) [Compound D58, 3-([[2,6-dimethoxy-4-(2-methyl-1-oxo-2,7-naphthyridin-4-yl)phenyl]methyl] (methyl)amino)-N-[2-[2-(2-[[2-(2,6-dioxopiperidin-3-yl)-1,3-dioxoisoindol-4-yl]amino]ethoxy)ethoxy]ethyl]bicyclo[1.1.1]pentane-1-carboxamide]	–
100 to 1000	10 to 100	COc1cc(-c2cn(C)c(=O)c3cnccc23)cc(OC)c1CN1CCC2(CC1)CN(C(=O)COc1ccc3c(c1)C(=O)N(C1CCC(=O)NC1=O)C3=O)CCO2 (centres unmarked) [Compound D64, 5-[2-(9-[[2,6-dimethoxy-4-(2-methyl-1-oxo-2,7-naphthyridin-4-yl)phenyl]methyl]-1-oxa-4,9-diazaspiro[5.5]undecan-4-yl)-2-oxoethoxy]-2-(2,6-dioxopiperidin-3-yl)isoindole-1,3-dione formic acid]	–
100 to 1000	10 to 100	COc1cc(-c2cn(C)c(=O)c3cnccc23)cc(OC)c1CN1CCN(C(=O)C2CC2CNC(=O)COc2ccc3c(c2)C(=O)N(C2CCC(=O)NC2=O)C3=O)CC1 (centres unmarked) [Compound D66, N-[[2-(4-[[2,6-dimethoxy-4-(2-methyl-1-oxo-2,7-naphthyridin-4-yl)phenyl]methyl]piperazine-1-carbonyl)cyclopropyl]methyl]-2-[[2-(2,6-dioxopiperidin-3-yl)-1,3-dioxoisoindol-5-yl]oxy]acetamide formic acid]	–
